Results as given in publication PMC9768625, “Is the vesicular nucleotide transporter a molecular target of eicosapentaenoic acid?” (Frontiers in Pharmacology, 2022).

Molecular target: T1, V-ATPase (vacuolar H^+-ATPase), purified from chromaffin granules (Bos taurus, UniProt P23956+Q29466)
T1 construct: gene ATP6V0C; purified chromaffin granule V-ATPase in reconstituted proteoliposomes (multi-subunit complex; subunits A, B and c indicated)
Experiment: colorimetric Mg-ATPase (Pi release) assay of proteoliposomes containing purified V-ATPase, con B at […]
Format: biochemical
Settings: proteoliposomes with purified v-atpase

C/C=C/[C@H]1O[C@@](O)([C@@H](C)[C@H](O)[C@H](C)[C@H]2OC(=O)/C(OC)=C/C(C)=C/[C@@H](C)[C@@H](O)[C@@H](C)[C@@H](O)[C@H](C)C/C(C)=C/C=C/[C@@H]2OC)C[C@@H](O[C@H]2C[C@@H](O)[C@H](OC(N)=O)[C@@H](C)O2)[C@@H]1C [con B, concanamycin B]
% of ATPase activity sensitive at 1 μM: > 95 % of ATPase activity sensitive at 1 μM
